Measurements reported in PMC6879560, “Functional annotation of serine hydrolases in the asexual erythrocytic stage of Plasmodium falciparum” (Scientific Reports, 2019).

Biological target: T1, Prodrug activation and resistance esterase (PfPARE) (Plasmodium falciparum, UniProt Q8IBZ2)
T1 construct: gene PF3D7_0709700; native 37 kDa species in saponin-isolated parasite lysate; also confirmed with endogenous C-terminal YFP fusion
Test: gel-based competitive ABPP with TAMRA-FP in parasite lysate; identity confirmed by YFP-tag shift
Assay type: biochemical

T1 sequence (Q8IBZ2 entry or part of it): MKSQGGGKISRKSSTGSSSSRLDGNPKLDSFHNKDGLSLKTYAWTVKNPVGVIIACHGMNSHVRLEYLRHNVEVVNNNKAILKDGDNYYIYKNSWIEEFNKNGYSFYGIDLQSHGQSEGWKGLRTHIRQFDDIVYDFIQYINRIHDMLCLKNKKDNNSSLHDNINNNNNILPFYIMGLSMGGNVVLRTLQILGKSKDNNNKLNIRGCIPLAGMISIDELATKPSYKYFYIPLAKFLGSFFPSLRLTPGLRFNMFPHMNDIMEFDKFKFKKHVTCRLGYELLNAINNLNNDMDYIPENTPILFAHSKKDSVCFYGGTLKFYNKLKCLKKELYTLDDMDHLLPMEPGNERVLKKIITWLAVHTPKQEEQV

O=C(OC(C(F)(F)F)C(F)(F)F)N1CCN(Cc2cccc(Oc3ccccc3)c2)CC1 [JW642]
IC50: 2.5 ± 0.6 nM
